From ChEMBL document CHEMBL2034891, “Discovery, design and synthesis of Y-shaped peroxisome proliferator-activated receptor δ agonists as potent anti-obesity agents in vivo” (Eur J Med Chem, 2012)
pEC50: −log10 of the molar value.

What was measured:
Homo sapiens = species on record: Homo sapiens; assay: Selectivity ratio of EC50 for human PPARalpha to EC50 for human PPARdelta
[1] = target: T1, Peroxisome proliferator-activated receptor gamma (Homo sapiens, UniProt P37231); assay: Transactivation activity at human PPARgamma expressed in african green monkey CV1 cells after 24 hrs by luciferase reporter gene assay; type: cell-based, CV-1
T1 sequence (P37231 whole entry): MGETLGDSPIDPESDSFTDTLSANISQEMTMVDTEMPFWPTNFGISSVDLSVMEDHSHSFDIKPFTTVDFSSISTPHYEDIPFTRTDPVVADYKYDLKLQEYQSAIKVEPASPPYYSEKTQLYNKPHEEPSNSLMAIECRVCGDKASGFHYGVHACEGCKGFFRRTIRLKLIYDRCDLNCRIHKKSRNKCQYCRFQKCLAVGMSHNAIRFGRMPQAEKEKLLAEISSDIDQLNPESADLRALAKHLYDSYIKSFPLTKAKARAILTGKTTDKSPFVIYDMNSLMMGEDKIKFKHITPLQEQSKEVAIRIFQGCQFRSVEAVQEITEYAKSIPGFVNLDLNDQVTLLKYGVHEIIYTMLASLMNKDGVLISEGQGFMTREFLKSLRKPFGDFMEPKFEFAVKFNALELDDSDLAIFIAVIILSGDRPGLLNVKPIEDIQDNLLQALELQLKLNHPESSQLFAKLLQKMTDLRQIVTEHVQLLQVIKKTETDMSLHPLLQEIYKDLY

[2] = target: T2, Peroxisome proliferator-activated receptor alpha (Homo sapiens, UniProt Q07869); assay: Transactivation activity at human PPARalpha expressed in african green monkey CV1 cells after 24 hrs by luciferase reporter gene assay; type: cell-based, CV-1
T2 sequence (Q07869 whole entry): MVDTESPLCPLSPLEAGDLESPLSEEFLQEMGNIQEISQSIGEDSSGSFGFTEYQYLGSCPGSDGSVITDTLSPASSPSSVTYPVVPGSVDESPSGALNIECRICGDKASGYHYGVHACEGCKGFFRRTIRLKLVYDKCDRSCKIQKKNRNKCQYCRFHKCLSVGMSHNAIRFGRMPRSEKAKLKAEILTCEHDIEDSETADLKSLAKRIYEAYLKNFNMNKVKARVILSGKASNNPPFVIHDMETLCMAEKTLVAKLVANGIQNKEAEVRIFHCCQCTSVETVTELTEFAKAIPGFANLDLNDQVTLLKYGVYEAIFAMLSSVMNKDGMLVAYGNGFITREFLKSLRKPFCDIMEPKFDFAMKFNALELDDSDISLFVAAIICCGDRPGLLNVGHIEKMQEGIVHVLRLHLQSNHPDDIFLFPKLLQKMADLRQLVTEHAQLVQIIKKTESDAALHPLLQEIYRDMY

[3] = target: T3, Peroxisome proliferator-activated receptor delta (Homo sapiens, UniProt Q03181); assay: Transactivation activity at human PPARdelta expressed in african green monkey CV1 cells after 24 hrs by luciferase reporter gene assay; type: cell-based, CV-1
T3 sequence (Q03181 whole entry): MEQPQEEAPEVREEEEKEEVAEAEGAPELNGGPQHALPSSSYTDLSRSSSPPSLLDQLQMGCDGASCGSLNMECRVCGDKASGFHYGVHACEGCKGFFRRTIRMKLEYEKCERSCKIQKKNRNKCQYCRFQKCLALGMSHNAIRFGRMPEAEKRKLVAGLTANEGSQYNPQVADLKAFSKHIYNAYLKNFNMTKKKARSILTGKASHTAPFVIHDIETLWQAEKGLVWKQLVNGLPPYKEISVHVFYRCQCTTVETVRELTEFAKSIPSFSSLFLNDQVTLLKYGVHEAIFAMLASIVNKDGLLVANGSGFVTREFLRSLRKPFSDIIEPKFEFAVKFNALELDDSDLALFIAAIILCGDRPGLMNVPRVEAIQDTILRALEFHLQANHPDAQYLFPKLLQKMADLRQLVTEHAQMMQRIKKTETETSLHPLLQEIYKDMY

Mus musculus = assay: Antiobesity activity in high-fat diet fed C57BL/6 mouse assessed as decrease in body weight gain at 10 mg/kg, po QD relative to control; type: functional; parameters: scale not given: the % may be the effect or the level left

For `Cc1cc(SC(Cc2c(F)cccc2Cl)c2sc(-c3ccc(C(F)(F)F)cc3)nc2C)ccc1OCC(=O)O` (stereo not given), the Ratio EC50 (Homo sapiens) was 10000, the pEC50 [1] was < 5.00 and the pEC50 [2] was < 5.00. The pEC50 [3] was 8.92.
With `Cc1cc(SC(Cc2ccc(C(F)(F)F)cc2)c2sc(-c3ccc(C(F)(F)F)cc3)nc2C)ccc1OCC(=O)O` (stereo not given) the pEC50 [1] was < 5.00, the pEC50 [2] was < 5.00 and the pEC50 [3] was 8.03.
`Cc1cc(SC(Cc2c(F)cccc2C(F)(F)F)c2sc(-c3ccc(C(F)(F)F)cc3)nc2C)ccc1OCC(=O)O` (stereo not given) was tested, and the Ratio EC50 (Homo sapiens) was 10000, the pEC50 [1] was < 5.00 and the pEC50 [2] was < 5.00. For the same compound, the pEC50 [3] was 8.92 and the Activity (Mus musculus) was 24%.
For `Cc1cc(SC(Cc2c3ccccc3cc3ccccc23)c2sc(-c3ccc(C(F)(F)F)cc3)nc2C)ccc1OCC(=O)O` (stereo not given), the pEC50 [1] was < 5.00 and the pEC50 [2] was < 5.00.
With `Cc1cc(SC(Cc2cc(F)ccc2F)c2sc(-c3ccc(C(F)(F)F)cc3)nc2C)ccc1OCC(=O)O` (stereo not given) the Ratio EC50 (Homo sapiens) was 10000, the pEC50 [1] was < 5.00 and the pEC50 [2] was < 5.00. For the same compound, the pEC50 [3] was 7.78.
For `Cc1cc(SC(CCCCCc2ccccc2)c2sc(-c3ccc(C(F)(F)F)cc3)nc2C)ccc1OCC(=O)O` (stereo not given), the pEC50 [1] was < 5.00 and the pEC50 [2] was < 5.00.
For `Cc1cc(SC(CCCCc2ccccc2)c2sc(-c3ccc(C(F)(F)F)cc3)nc2C)ccc1OCC(=O)O` (stereo not given), the pEC50 [1] was < 5.00 and the pEC50 [2] was < 5.00.
In the case of `Cc1cc(SC(Cc2ccc(F)cc2F)c2sc(-c3ccc(C(F)(F)F)cc3)nc2C)ccc1OCC(=O)O` (stereo not given), the Ratio EC50 (Homo sapiens) was 10000, the pEC50 [1] was < 5.00 and the pEC50 [2] was < 5.00. For the same compound, the pEC50 [3] was 8.34.
`Cc1cc(SC(Cc2cccc3ccccc23)c2sc(-c3ccc(C(F)(F)F)cc3)nc2C)ccc1OCC(=O)O` (stereo not given) was tested, and the pEC50 [1] was < 5.00, the pEC50 [2] was < 5.00 and the pEC50 [3] was 6.31.
With `Cc1cc(SC(CCCCCCCCCCc2ccccc2)c2sc(-c3ccc(C(F)(F)F)cc3)nc2C)ccc1OCC(=O)O` (stereo not given) the pEC50 [1] was < 5.00 and the pEC50 [2] was < 5.00.
With `Cc1cc(SC(Cc2ccc([N+](=O)[O-])cc2)c2sc(-c3ccc(C(F)(F)F)cc3)nc2C)ccc1OCC(=O)O` (stereo not given) the pEC50 [1] was < 5.00, the pEC50 [2] was < 5.00 and the pEC50 [3] was 7.22.
For `Cc1cc(SC(Cc2ccc(-c3ccccc3)cc2)c2sc(-c3ccc(C(F)(F)F)cc3)nc2C)ccc1OCC(=O)O` (stereo not given), the pEC50 [1] was < 5.00, the pEC50 [2] was < 5.00 and the pEC50 [3] was 8.36.
For `Cc1cc(SC(C)c2sc(-c3ccc(C(F)(F)F)cc3)nc2C)ccc1OCC(=O)O` (stereo not given), the pEC50 [1] was < 5.00, the pEC50 [2] was 6.87 and the pEC50 [3] was 8.74.
